Measured values as given in article PMC9785397, “Exploiting Conserved Quorum Sensing Signals in Streptococcus mutans and Streptococcus pneumoniae” (Microorganisms, 2022).
≈ marks a conversion by molar mass, not a printed value. Structures can show the parent of a compound that is named as a salt.

Key:
bip gene = experiment: qRT-PCR, bip gene expression; type: cell-based, Streptococcus mutans; details: analog 20 μM with CSP1 20 μM, 8 h, qPCR, p < 0.05 vs CSP1
Description: (§1) S. mutans was cultured in BHI supplemented with peptides or the vehicle. Cultures were centrifuged, and total RNA was isolated and purified from the bacterial pellets using the GRS Total RNA Kit—Bacteria (GK16.0100; GRISP Research Solution, Porto, Portugal), following the manufacturer’s instructions. Purified RNA was subjected to DNase I treatment to remove contaminating DNA. The RNA yield and purity were assessed by measuring the absorbance, and only samples with a ratio of 260/280 nm in the 1.8–2 range were used. cDNA was generated using the cDNA RT kit with an RNAse inhibitor (Applied Biosystems; Monza, Milan). Quantitative PCR (qRT-PCR) was performed using SYBR green mixture (iScript One Step RT-PCR kit; Bio-Rad, Segrate, Milan) to determine the transcript levels of genes using the oligonucleotides listed in Table 3. The gyrA gene served as the housekeeping gene.

P. aeruginosa = experiment: microbe, parasite or virus in culture; type: cell-based, Pseudomonas aeruginosa; details: 16 h; for Minimum inhibitory concentration (MIC), P. aeruginosa: peptides 0–50 μM, 37 °C, aerobic, A620 nm, three separate experiments
Text: (§2) Streptococcus mutans Clarke (strain designation NCTC 10449), Pseudomonas aeruginosa (Schroeter) Migula (strain designation PAO1), Fusobacterium nucleatum, subspecies nucleatum (strain VPI 4355), and Porphyromonas gingivalis (strain 2561) were purchased from ATCC (LGC Standards Srl, Milan, Italy). Streptococcus mitis, Streptococcus oralis, and Streptococcus sanguinis were obtained from clinical isolates and characterized by morphological, biochemical, and molecular typing. S. mutans, S. mitis, S. oralis, and S. sanguinis were maintained in Brain Heart Infusion (BHI) broth or agar under microaerophilic conditions. P. aeruginosa was maintained in trypticase soy (TS) agar or broth. F. nucleatum was maintained in TS agar or broth with defibrinated sheep blood under anaerobic conditions. P. gingivalis was maintained in ATCC Medium 2722 supplemented with TS broth or agar under anaerobic conditions. Before the experiments, bacterial cultures were inoculated in fresh media (dilution 1:100) and grown for 16 h at 37 °C.
(§3) The antimicrobial activities of the tested peptides were assessed through the determination of the minimum inhibitory concentration (MIC) standardized by the Clinical and Laboratory Standards Institute. Bacterial inocula were diluted in 10 mL of MHB […]. The concentration of the bacteria was adjusted to 0.5 McFarland standard, and the bacteria were dispensed in 96-well microtiter plates (final bacterial concentration: 1 × 10^4 CFU/well). Peptides were dissolved in sterile water (stock concentration: 2 mM) and added at final concentrations ranging from 0 to 50 µM. Plates were incubated at 37 °C for 16 h. At the end of incubation, bacterial growth was recorded using a microplate reader (Varioskan Lux Reader; Thermo Fisher Scientific, Milan, Italy) by quantifying the adsorption at 620 nm. Cultures were then opportunely diluted and seeded on agar plates. Bacterial cultures inoculated with the highest final concentration of the vehicle (sterile water) or chlorhexidine hydrochloride salt (CHX, concentration range: 0.05 to 500 μg/mL; Merck, Milan, Italy) were included as controls in each test. Experiments were performed in triplicate.

comE gene = experiment: qRT-PCR, comE gene expression; type: cell-based, Streptococcus mutans; details: analog 20 μM with CSP1 20 μM, planktonic, 8 h, qPCR
Description: as §1

S. oralis = experiment: microbe, parasite or virus in culture; type: cell-based, Streptococcus oralis; details: for Minimum inhibitory concentration (MIC), S. oralis: peptides 0–50 μM, 37 °C, microaerophilic, A620 nm, three separate experiments
Text: as §2, §3

S. sanguinis = experiment: microbe, parasite or virus in culture; type: cell-based, Streptococcus sanguinis; details: for Minimum inhibitory concentration (MIC), S. sanguinis: peptides 0–50 μM, 37 °C, microaerophilic, A620 nm, three separate experiments
Text: as §2, §3

S. mutans = experiment: microbe, parasite or virus in culture; type: cell-based, Streptococcus mutans; details: for Minimum inhibitory concentration (MIC), S. mutans: peptides 0–50 μM, 37 °C, microaerophilic, A620 nm, three separate experiments
Text: as §2, §3

[1] = system: S. mutans bacteriocin production against S. oralis; experiment: Bacteriocin overlay assay, S. mutans spotted on S. oralis; type: cell-based, Streptococcus mutans; details: analog 20 μM with CSP1 20 μM, 16 h, p < 0.05 vs CSP1
Description: (§4) During the formation of complex biofilm such as dental plaque, the ability of S. mutans to compete with other commensal species determines the success of the cariogenesis process. S. mutans uses antibacterial peptides, namely, bacteriocins, to overcome and subvert the composition of dental microbiota. We investigated the production of bacteriocins using the overlay assay. Overnight cultures of S. mitis, S. oralis, S. sanguinis, P. aeruginosa, F. nucleatum, or P. gingivalis were diluted 1:100 in BHI or TS broth and incubated at 37 °C until they reached an OD620 of 0.3. Cultures were added with agar (BD Difco^TM Agar) at the final concentration of 1.5% w/v and transferred in plates. Overnight cultures of S. mutans were diluted 1:100 in BHI and added with peptides (20 μM) or the vehicle with or without CSP1. Culture media were supplemented with agar to reach the final concentration of 0.7% w/v. The solutions were spotted on the surface of agar plates prepared as described above. The plates were kept on the benchtop for 30 min, allowing the agar containing S. mutans to solidify, and then incubated at 37 °C for 16 h under microaerophilic or anaerobic conditions, as required.
(§5) Spots (10 for each experimental group) were acquired and analyzed using NIH Image J software (version 1.53t August 2022, https://imagej.nih.gov/ij/index.html; accessed on 7 September 2022). The appearance of a clear area on the plate (bacterial growth inhibition) was evaluated as indicative of bacteriocin activity. The diameters of the area were measured in a blinded fashion.

S. mitis = experiment: microbe, parasite or virus in culture; type: cell-based, Streptococcus mitis; details: for Minimum inhibitory concentration (MIC), S. mitis: peptides 0–50 μM, 37 °C, microaerophilic, A620 nm, three separate experiments
Text: as §2, §3

comD gene = experiment: qRT-PCR, comD gene expression; type: cell-based, Streptococcus mutans; details: analog 20 μM with CSP1 20 μM, planktonic, 8 h, qPCR
Description: as §1

F. nucleatum = experiment: microbe, parasite or virus in culture; type: cell-based, Fusobacterium nucleatum; details: 16 h; for Minimum inhibitory concentration (MIC), F. nucleatum: peptides 0–50 μM, 37 °C, anaerobic, A620 nm, three separate experiments
Text: as §2, §3

P. gingivalis = experiment: microbe, parasite or virus in culture; type: cell-based, Porphyromonas gingivalis; details: 16 h; for Minimum inhibitory concentration (MIC), P. gingivalis: peptides 0–50 μM, 37 °C, anaerobic, A620 nm, three separate experiments
Text: as §2, §3

[2] = system: S. mutans bacteriocin production against S. sanguinis; experiment: Bacteriocin overlay assay, S. mutans spotted on S. sanguinis; type: cell-based, Streptococcus mutans; details: analog 20 μM with CSP1 20 μM, 16 h, p < 0.05 vs CSP1
Description: as §4, §5

[3] = system: S. mutans bacteriocin production against S. mitis; experiment: Bacteriocin overlay assay, S. mutans spotted on S. mitis; type: cell-based, Streptococcus mutans; details: analog 20 μM with CSP1 20 μM, 16 h, p < 0.05 vs CSP1
Description: as §4, §5

S. mutans mature biofilm = experiment: Mature biofilm (crystal violet); type: cell-based, Streptococcus mutans; details: CHX 0.63 μg/mL added at 48 h, biofilm assessed 24 h later
Description: (§6) Overnight cultures of S. mutans were diluted 1:1000 in a 1:10 solution of BHI broth supplemented with 0.2% w/v sucrose and artificial saliva (AS; 1.3 g/L KCl, 0.1 g/L NaCl, 0.05 g/L MgCl, 0.1 g/L CaCl2, 0.5 g/L peptone, 25 μg/L NaF, 27 mg/L KH2PO4, 35 mg/L K2HPO4, pH 6.8; all reagents purchased from Merck). Cultures were seeded into 96-well polystyrene microtiter plates (200 µL/well) and incubated at 37 °C under static conditions. To identify the time of incubation that is useful in obtaining a mature biofilm, plates were incubated for 16, 24, 48, 72, or 96 h. Half of the media was renewed every 24 h. At the end of incubations, the wells were emptied and washed three times with sterile PBS to remove planktonic cells. Adhering cells were incubated with resazurin 0.01% in the dark at 37 °C for 20 min [30]. In metabolically active cells, the non-fluorescent resazurin was reduced to highly fluorescent resorufin by dehydrogenase enzymes. The relative fluorescence units (RFU) of resorufin were measured using a fluorimeter (Ex = 530–570 nm, Em = 590–620 nm; Varioskan Lux Reader; Thermo Fisher Scientific).
(§7) To assess the effect of the compounds on biofilm formation or mature biofilm, cultures of S. mutans were prepared as described above. […] The optical density was measured at 570 nm using a microplate reader (Varioskan Lux Reader; Thermo Fisher Scientific). […]

[4] = system: S. mutans biofilm formation; experiment: Biofilm formation (crystal violet); type: cell-based, Streptococcus mutans; details: CHX 0.63 μg/mL, 72 h, stimuli renewed every 24 h
Description: as §6, §7

[5] = CHX, microdilution method and colony counting assay

| Structure (SMILES) | Effect on the CSP1-induced expression of bip (bip gene) | Minimum inhibitory concentration (MIC), P. aeruginosa (P. aeruginosa) | Effect on the expression of comE induced by CSP1 (comE gene) | Minimum inhibitory concentration (MIC), S. oralis (S. oralis; 16 h) | Minimum inhibitory concentration (MIC), S. sanguinis (S. sanguinis; 16 h) | Minimum inhibitory concentration (MIC), S. mutans (S. mutans; 16 h) | Effect on the CSP1-induced antibacterial effects against S. oralis [1] | Minimum inhibitory concentration (MIC), S. mitis (S. mitis; 16 h) | Effect on the expression of comD induced by CSP1 (comD gene) | Minimum inhibitory concentration (MIC), F. nucleatum (F. nucleatum) | Minimum inhibitory concentration (MIC), P. gingivalis (P. gingivalis) | Effect on the CSP1-induced antibacterial effects against S. sanguinis [2] | Effect on the CSP1-induced antibacterial effects against S. mitis [3] | other results |
| --- | --- | --- | --- | --- | --- | --- | --- | --- | --- | --- | --- | --- | --- | --- |
| CC[C@H](C)[C@H](NC(=O)[C@H](Cc1ccccc1)NC(=O)[C@H](CC(=O)O)NC(=O)[C@H](CCCNC(=N)N)NC(=O)[C@H](Cc1ccccc1)NC(=O)[C@H](Cc1ccccc1)NC(=O)[C@H](CCCCNC(C)=O)NC(=O)[C@H](CO)NC(=O)[C@H](CC(C)C)NC(=O)[C@H](CCCNC(=N)N)NC(=O)[C@H](CCSC)NC(=O)[C@H](CCC(=O)O)NC(C)=O)C(=O)N[C@@H](CC(C)C)C(=O)N[C@@H](CCC(N)=O)C(=O)N[C@@H](CCCNC(=N)N)C(=O)N[C@@H](CCCCNC(C)=O)C(=O)N[C@@H](CCCCNC(C)=O)C(=O)O [Ac4CSP1] | significantly reduced | >50 µM | inhibited the expression | 23 µM (≈ 55.5 µg/mL) | 25 µM (≈ 60.3 µg/mL) | 26 µM (≈ 62.7 µg/mL) | significantly reduced | 28 µM (≈ 67.5 µg/mL) | inhibited the expression | >50 µM | >50 µM | significantly reduced | significantly reduced |  |
| CC[C@H](C)[C@H](NC(=O)[C@H](Cc1ccccc1)NC(=O)[C@H](CC(=O)O)NC(=O)[C@H](CCCNC(=N)N)NC(=O)[C@H](Cc1ccccc1)NC(=O)[C@H](Cc1ccccc1)NC(=O)[C@H](CCCCN)NC(=O)[C@H](CO)NC(=O)[C@H](CC(C)C)NC(=O)[C@H](CCCNC(=N)N)NC(=O)[C@H](CCSC)NC(=O)[C@H](CCC(=O)O)NC(C)=O)C(=O)N[C@@H](CC(C)C)C(=O)N[C@@H](CCC(N)=O)C(=O)N[C@@H](CCCNC(=N)N)C(=O)N[C@@H](CCCCN)C(=O)N[C@@H](CCCCN)C(=O)O [AcCSP1] | significantly reduced | >50 µM | inhibited the expression | 21 µM (≈ 48 µg/mL) | 27 µM (≈ 61.7 µg/mL) | 20 µM (≈ 45.7 µg/mL) | significantly reduced | 24 µM (≈ 54.8 µg/mL) | inhibited the expression | >50 µM | >50 µM | significantly reduced | significantly reduced |  |
| [H]/N=C(\N/C(=N/[H])NCCCCCCNC(=N)NC(=N)Nc1ccc(Cl)cc1)Nc1ccc(Cl)cc1 [CHX, chlorhexidine hydrochloride salt] |  |  |  |  |  |  |  |  |  |  |  |  |  | MIC (P. aeruginosa; Pseudomonas aeruginosa, read-out: Minimum inhibitory concentration (MIC), P. aeruginosa): 1.68 µg/mL; Concentration inducing bactericidal activity, S. oralis (S. oralis; [5]): below 1 μg/mL; MIC (S. oralis; Streptococcus oralis, 16 h, read-out: Minimum inhibitory concentration (MIC), S. oralis): 0.57 µg/mL; Concentration inducing bactericidal activity, S. sanguinis (S. sanguinis; [5]): below 1 μg/mL; MIC (S. sanguinis; Streptococcus sanguinis, 16 h, read-out: Minimum inhibitory concentration (MIC), S. sanguinis): 0.69 µg/mL; Concentration inducing bactericidal activity, S. mutans (S. mutans; [5]): below 1 μg/mL; MIC (S. mutans; Streptococcus mutans, 16 h, read-out: Minimum inhibitory concentration (MIC), S. mutans): 0.63 µg/mL; Concentration inducing bactericidal activity, S. mitis (S. mitis; [5]): below 1 μg/mL; MIC (S. mitis; Streptococcus mitis, 16 h, read-out: Minimum inhibitory concentration (MIC), S. mitis): 0.5 µg/mL; MIC (F. nucleatum; Fusobacterium nucleatum, read-out: Minimum inhibitory concentration (MIC), F. nucleatum): 300 µg/mL; Reduction of mature biofilm vs. vehicle (S. mutans mature biofilm): 54%; Reduction of biofilm formation vs. vehicle [4]: 70%; MIC (P. gingivalis; Porphyromonas gingivalis, read-out: Minimum inhibitory concentration (MIC), P. gingivalis): 254 µg/mL |
